Laboratory results published in article PMC6628648, “Enabling microbial syringol conversion through structure-guided protein engineering” (Proceedings of the National Academy of Sciences of the …, 2019).

Key:
Assay in all cases: In vivo syringol conversion in shake flasks, 1H NMR of culture medium
Type in all cases: cell-based
[1] = tested on: Pseudomonas putida KT2440 strain AM155 lacking GcoAB; settings: AM155 (does not express GcoA), 1 mM syringol
Procedure: (§1) A standard for 2-pyrone 6-carboxylate was not available; however, we did verify the presence of 2-pyrone 6-carboxylate using LC-MS-MS (SI Appendix, Fig. S15). While small amounts of pyrogallol, 3MC, and 2-pyrone 6-carboxylate were also observed with the WT GcoAB (AM156), nearly 60% of the original syringol remained after 6 h.
(§2) Strains used for shake flask experiments were grown overnight in LB media and resuspended the next day in M9 minimal media with 20 mM glucose, as described in SI Appendix. Cells were grown until they reached an OD600 of approximately 1, at which point syringol was added at a final concentration of 1 mM. ^1H NMR spectroscopy was used to analyze syringol consumption.
(§3) 572 nm was recorded by a Varioskan Lux microplate reader (Thermo Scientific). The absorbance was compared to a standard curve with 0-100 μM H2O2 to quantify the amount of peroxide produced in the reactions.
(§4) Purified protein was buffer exchanged into 10 mM HEPES pH 7.5 and concentrated to an A280 value of 12, as measured on a NanoDrop 2000 spectrophotometer (Thermo Fisher). Crystals of GcoA were grown with 2.4 M sodium malonate and 200 mM substrate, dissolved in 40% DMSO where necessary. Crystals were cryocooled directly in liquid N2 without further addition of cryoprotectants. […]
(§5) Strains evaluated in shake flask experiments were initially grown overnight in LB media with appropriate antibiotics from glycerol stocks and resuspended the following day in M9 minimal media (6.78 g/L Na2HPO4, 3 g/L KH2PO4, 0.5 g/L NaCl, 1 g/L NH4Cl, 2 mM MgSO4, 100 µM CaCl2, and 40 µM FeSO4 . 7H2O) supplemented with 20 mM glucose (Sigma-Aldrich) and […] kanamycin.
(§6) Cells were grown until they reached an OD600 of 1, at which point syringol (Sigma-Aldrich) was added to a final concentration of 1 mM. Syringol concentrations were quantified using any 1H NMR, and spectra were collected using a Bruker Avance III HD 400 MHz Spectrometer and analyzed using Bruker TopSpin3.7 software. For identification of unknown compounds, samples were analyzed via LC-MS-MS using the Acquity UPLC system (Waters Inc.). […]

[2] = tested on: Pseudomonas putida KT2440 strain AM156 expressing WT GcoAB; settings: 20 mM glucose, 1 mM syringol
Procedure: as §1, §2, §3, §4, §5, §6

[3] = tested on: Pseudomonas putida KT2440 strain AM157 expressing GcoA-F169A and GcoB; settings: 20 mM glucose, 1 mM syringol
Procedure: as §1, §2, §3, §4, §5, §6

Structure (SMILES): COc1cccc(OC)c1O [syringol, 2,6-dimethoxyphenol]
- syringol conversion after 6 h [1]: no conversion
- original syringol remaining after 6 h [2]: ~60%
- syringol 1H NMR peaks in culture medium after 6 h [3]: completely disappeared
